Measured values from the PolyMetriX glass transition set.
± gives the standard deviation of the reports.

glass transition temperature | Compound
156.00 °C | *Oc1ccc(-c2ccc(Oc3ccc(Oc4cccc(Oc5ccc(*)cc5)c4C)cc3)c3ccccc23)c2ccccc12 (repeat unit)
124.00 °C | *c1ccc(-c2ccc(N3C(=O)c4ccc(Oc5ccc6c(c5)C(=O)N(*)C6=O)cc4C3=O)c(OCCCCCCOc3ccc(/C=C/c4ccc(F)cc4)cc3)c2)cc1OCCCCCCOc1ccc(/C=C/c2ccc(F)cc2)cc1 (repeat unit)
228.00 °C | *c1ccc(Oc2ccc(N3C(=O)c4ccc(Oc5c(Oc6ccc7c(c6)C(=O)N(*)C7=O)cc(C(C)(C)C)cc5C(C)(C)C)cc4C3=O)cc2)cc1 (repeat unit)
-62.50 °C | *O[Si](C)(C)O[Si](C)(C)c1ccc([Si](*)(C)C)cc1 (repeat unit)
227.50 °C | *c1ccc(Cc2ccc(S(*)(=O)=O)cc2)cc1 (repeat unit)
226.70 °C | *c1ccc(Sc2ccc(Sc3ccc(Sc4ccc(N5C(=O)c6ccc(-c7cccc8c7C(=O)N(*)C8=O)cc6C5=O)cc4)cc3)cc2)cc1 (repeat unit)
226.00 °C | *Oc1ccc(S(=O)(=O)c2ccc(Oc3ccc(C4(c5ccc(*)cc5)CCCCC4)cc3)cc2)cc1 (repeat unit)
328.00 °C | *c1ccc(Oc2cccc(Oc3ccc(-n4c(=O)c5cc6c(=O)n(*)c(=O)c6cc5c4=O)cc3)c2C#N)cc1 (repeat unit)
152.00 °C | *CCN(CCOC(=O)c1ccc(C(=O)O*)c(OCCC)c1)c1ccc(/N=N/c2ccc(-c3nc4cc([N+](=O)[O-])ccc4[nH]3)cc2)cc1 (repeat unit)
222.50 °C | *c1ccc(Oc2ccc(-c3ccc(Oc4ccc(N5C(=O)c6ccc(Oc7cc8ccccc8cc7Oc7ccc8c(c7)C(=O)N(*)C8=O)cc6C5=O)cc4)cc3)cc2)cc1 (repeat unit)
-10.50 °C | *CCCCOC(=O)C1CCC(C(=O)O*)CC1 (repeat unit)
94.00 °C | *c1nc(-c2ccccc2)nc(N(CCCCN(*)c2ccccc2)c2ccccc2)n1 (repeat unit)
27.00 °C | *CC(*)(C)C(=O)OCCOCCOCC[N+](CC)(CC)CCCCS(=O)(=O)O (repeat unit)
87.10 °C | *CC(O)CN(CCO)CC(O)COc1ccc(C(C)(C)c2ccc(O*)cc2)cc1 (repeat unit)
178.00 °C | *c1ccc(Oc2cccc(Oc3ccc(N4C(=O)c5ccc(Oc6ccc(Sc7ccc(Oc8ccc9c(c8)C(=O)N(*)C9=O)cc7)cc6)cc5C4=O)cc3)c2)cc1 (repeat unit)
310.00 °C | *c1ccc(C2(c3ccc(-c4cc(-c5ccccc5)c5cc(Oc6ccc7nc(*)cc(-c8ccccc8)c7c6)ccc5n4)cc3)c3ccccc3-c3ccccc32)cc1 (repeat unit)
119.00 °C | *CCOC(=O)c1ccc2ccc(C(=O)O*)cc2c1 (repeat unit)

glass transition temperature | Compound
232.00 ± 18 °C | *c1ccc(Oc2cccc(N3C(=O)c4ccc(Oc5ccc6c(c5)C(=O)N(*)C6=O)cc4C3=O)c2)cc1 (repeat unit)
94.00 °C | *CCCCCCCCCCNC(=O)c1ccc(C(=O)N*)c(Oc2ccccc2)c1 (repeat unit)
267.00 °C | *c1cccc(C(c2cccc(N3C(=O)c4ccc(-c5ccc6c(c5)C(=O)N(*)C6=O)cc4C3=O)c2)(C(F)(F)F)C(F)(F)F)c1 (repeat unit)
235.00 °C | *C(=O)Nc1cccc(Oc2ccc(S(=O)(=O)c3ccc(Oc4cccc(NC(=O)c5ccc(N6C(=O)c7ccc(*)cc7C6=O)cc5)c4)cc3)cc2)c1 (repeat unit)
95.00 °C | */C=C/c1ccc2c3ccc(*)cc3n(-c3ccc(OCCCCCCCCCC)c(OCCCCCCCCCC)c3)c2c1 (repeat unit)
242.00 °C | *c1ccc2c(c1)C(=O)N(c1ccc(Sc3ccc(Oc4ccc(Sc5ccc(N6C(=O)c7ccc(C(*)(C(F)(F)F)C(F)(F)F)cc7C6=O)cc5)cc4)cc3)cc1)C2=O (repeat unit)
347.00 °C | *C(=O)c1ccc2c(c1)C(=O)N(c1ccc(Cc3ccc(Cc4ccc(N5C(=O)c6ccc(*)cc6C5=O)cc4)cc3)cc1)C2=O (repeat unit)
211.00 °C | *Cc1c(C)c(C)c(CNC(=O)CCCCCC(C)CC(=O)N*)c(C)c1C (repeat unit)
227.10 °C | *c1ccc(Oc2ccc(C(=O)c3cccc(C(=O)c4ccc(Oc5ccc(-n6c(=O)c7cc8c(=O)n(*)c(=O)c8cc7c6=O)cc5C(F)(F)F)cc4)n3)cc2)c(C(F)(F)F)c1 (repeat unit)
265.00 °C | *C(=O)Nc1ccc(Oc2ccc(-c3ccc(Oc4ccc(NC(=O)c5ccc6c(c5)C(=O)N(c5ccc(Oc7ccc(C8(c9ccc(Oc%10ccc(N%11C(=O)c%12ccc(*)cc%12C%11=O)cc%10)cc9)CC9CC8C8CCCC98)cc7)cc5)C6=O)cc4)cc3C)c(C)c2)cc1 (repeat unit)
87.00 °C | *CCCCCC(=O)Oc1ccc(OC(=O)CCCCCn2c(=O)c3cc4c(=O)n(*)c(=O)c4cc3c2=O)c(Cl)c1 (repeat unit)
77.00 °C | *CC(*)(C)C(=O)OCCCCCCN1CCN(c2ccc(/N=N/c3ccc(C#N)cc3)cc2)CC1 (repeat unit)
166.00 °C | *Oc1ccc2ccc(Oc3ccc(C(=O)Nc4ccc(Oc5ccc(C(C)(C)c6ccc(C(C)(C)c7ccc(Oc8ccc(NC(=O)c9ccc(*)cc9)cc8)cc7)cc6)cc5)cc4)cc3)cc2c1 (repeat unit)
46.50 °C | *CCCCCNC(=O)CCCCC(=O)N* (repeat unit)
364.00 °C | *c1ccc(-c2ccc(-c3ccc(-n4c(=O)c5c(C(F)(F)F)c6c(=O)n(*)c(=O)c6c(C(F)(F)F)c5c4=O)cc3)cc2)cc1 (repeat unit)
47.00 °C | */C=C/C1CC(*)C(C#N)([Si](C)(C)O[Si](C)(C)O[Si](C)(C)C)C1 (repeat unit)

Compound | glass transition temperature
*CCOC(=O)O* (repeat unit) [Poly(ethylene carbonate)] | 10.92 ± 8.4 °C
*CC(*)C(=O)Oc1ccc(C)cc1 (repeat unit) | 42.50 °C
*CC(*)C(=O)OCC(C)CC (repeat unit) | -32.00 °C
*O[Si](*)(C)CCCCC1COC(=O)O1 (repeat unit) | -23.4 °C
*CCC[Si](*)(C)c1ccc(N(C)C)cc1 (repeat unit) | 6.50 °C
*OP(=O)(Oc1c(Cl)cccc1Cl)Oc1c(Cl)c(Cl)c(*)c(Cl)c1Cl (repeat unit) | 144.00 °C
*CC(*)CCc1ccccc1 (repeat unit) | 10.00 °C
*CC(*)c1ccc(Cl)c(C)c1 (repeat unit) | 114.00 °C
*CCCCCOCO* (repeat unit) | -80.00 °C
*CC(O)CO* (repeat unit) | 17.00 °C
*/C=C/CCCC(Cl)CCC* (repeat unit) | -63.00 °C
*C/C=C/C[Si](*)(C)c1ccccc1 (repeat unit) | -1.00 °C
*CC(C)O* (repeat unit) [Poly(propylene glycol)] | -69.18 ± 2.6 °C
*CC(CC(Cl)(Cl)Cl)O* (repeat unit) | -36.00 °C
